Assay results taken from patent US10010560B2, “Small molecule HSP70 inhibitors” (THE TRUSTEES OF THE UNIVERSITY OF PENNSYLVANIA, priority 2014, dated 2018).
“And” between values parts separate entries of the source, which are not always exact repeats. Identical values can stand only once. Blank lines part the entries; values can stand above or below the compound they belong to.

Legend:
HSP70 (aa 386-616) = biological target: T1, HSP70 (aa 386-616) (Homo sapiens, UniProt P0DMV8); experiment: ITC binding to C-terminal domain of HSP70; settings: in words
T1 construct: His6 (N); made in house; host or cells: E. coli BL21 Star (DE3)
T1 sequence (P0DMV8 386-616): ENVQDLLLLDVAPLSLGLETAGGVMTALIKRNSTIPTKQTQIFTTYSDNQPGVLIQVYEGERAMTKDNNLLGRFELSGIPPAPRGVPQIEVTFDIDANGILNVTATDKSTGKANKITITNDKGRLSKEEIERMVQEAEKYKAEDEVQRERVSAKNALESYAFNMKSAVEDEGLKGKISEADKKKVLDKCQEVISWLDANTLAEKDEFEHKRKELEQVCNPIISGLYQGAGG
Source text: The human stress-inducible HSP70 (residues 1-641 or 386-616 of SEQ ID NO: 2) and E. coli DnaK (residues 1-638, 389-607, or 393-507 of SEQ ID NO: 4) were cloned into the pET25 vector (EMD Millipore Chemicals, Inc., Billerica, Mass., USA) between the NdeI and XhoI restriction sites. The full-length HSP70 and DnaK mutants were constructed by PCR-based site-directed mutagenesis using the QuikChange™ Site-Directed Mutagenesis Kit (Agilent Technologies, Inc., Santa Clara, Calif., USA). All plasmid inserts were verified by DNA sequencing. All HSP70 and DnaK variants were produced with a N-terminal His6-tag in the E. coli BL21 Star (DE3) strain (Invitrogen catalog number C6010-03). The resulting strains were grown at 37° C. in LB medium containing 50 μg/mL of carbenicillin (Sigma-Aldrich Co., St. Louis, Mo., USA). At an OD600 about 0.3 to about 0.5, protein expression was induced with 0.5 mM isopropyl-β-D-thiogalactopyranoside (IPTG), and cells were subsequently grown at 25° C. for about 16 h. Cells were collected by centrifugation and resuspended in the Bugbuster® Master Mix (EMD Millipore Chemicals catalog number 71456-4), supplemented with protease inhibitors, 1 mM diethiothreitol (DTT) and 20 mM imidazole. The His6-tagged fusion proteins were isolated on Ni^2+-chelating resins (Ni-NTA Superflow, Qiagen catalog number 30410) by standard procedures. […]

DnaK SBD = biological target: T2, DnaK SBD (Escherichia coli, UniProt P0A6Y8); experiment: ITC binding to DnaK SBD; set-up: species or system E. coli; settings: in words
T2 construct: The titrations involving the purified HSP70 (aa 386-616) and DnaK (aa 393-507) were performed at 42° C; His6 (N); made in house; host or cells: E. coli BL21 Star (DE3)
T2 sequence (P0A6Y8 393-507): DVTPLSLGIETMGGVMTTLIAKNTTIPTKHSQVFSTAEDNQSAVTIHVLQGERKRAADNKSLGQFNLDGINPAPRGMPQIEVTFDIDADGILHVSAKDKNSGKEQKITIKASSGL
Method: (§1) All ITC experiments were performed using a MicroCal VP-ITC isothermal titration calorimeter (MicroCal). Both full-length HSP70 and DnaK proteins and DnaK (aa 393-507) proteins were prepared in 1 mM Tris-HCl (pH 7.4) buffer containing 3% dimethylsulfoxide (DMSO). The HSP70 (aa 386-616) protein was prepared in buffer containing 3% DMSO and 10 mM Tris-HCl, pH 7. The syringe was loaded with purified protein in either 1 mM Tris-HCl (pH 7.4) buffer containing 3% DMSO or 10 mM Tris-HCl (pH 7) buffer containing 3% DMSO. The sample cell of the calorimeter was loaded with PES, PET-16 or NRLLLTG (SEQ ID NO: 7) prepared in the same buffer. All solutions were degassed for 5 min.
(§2) The titrations involving the full-length purified proteins were performed at 25° C. with injection volumes of 12 μL and a spacing of 300 s. The titrations involving the purified HSP70 (aa 386-616) and DnaK (aa 393-507) were performed at 42° C. with injection volumes of 12 μL and a spacing of 300 s. Heat from the pre-injection was not used during fitting. The data were fit using a one-site binding model available in the Origin® ITC data analysis software (MicroCal Origin® V5.0, MicroCal Software, Northampton, Mass.). Error values obtained from the MicroCal Origin® V5.0 software were averaged and reported.

tumor cells = experiment: Cytotoxic effect on tumor cells; type: cell-based; settings: in words
Source text: FIGS. 1A to 1G provide the PET-16 and analogs thereof. FIGS. 1A-1C provide the chemical structures of PES, Biotin-PES, and PES-Cl, respectively. The chemical names and the major functional groups are indicated. […] The chemical names are indicated. FIGS. 1E-1G are the chemical structures of PET-16, PET-3C and PET-DR, respectively. The chemical names and the major functional groups are indicated.

E. coli DH5α = experiment: Growth of E. coli DH5α at 43° C.; type: cell-based; settings: 6 h at 43° C.
Method: FIGS. 2A-2D illustrate the cytotoxicity of PET-16 to human tumor cells and its inhibition on E. coli growth. FIG. 2A is a line graph with data obtained from MTT assays of human melanoma cell lines treated with the indicated concentrations of PES or PET-16 for 72 h. The corresponding cell survival is normalized to vehicle (DMSO) treatment. Average and standard deviation (s.d.) from three independent experiments are shown. FIG. 2B are bar graphs of human melanoma (A875) cells and nontransformed human (IMR90) fibroblasts that were treated with DMSO, 10 μM PES or 10 μM PET-16 for 24 h. […] FIG. 2C is a line graph illustrating the growth of E. coli DH5α treated with different concentrations of PES or PET-16 for 6 h at 43° C. Error bars represent the s.d. of four independent experiments. FIG. 2D is a bar graph illustrating the growth of E. coli DH5α treated with DMSO, 30 μM PET-16 or 30 μM TPP for 6 h at 43° C. Error bars represent the s.d. of four independent experiments.
FIGS. 9A-9H illustrate that PET-16 binds directly to ADP-bound HSP70 and is cytotoxic to human tumor cells. FIGS. 9A-9C are ITC assays of the interaction of PET-3C with purified human HSP70-ADP (A), human HSP70-ATP (B) and DnaK-ADP (C) proteins. The data are representative of three independent experiments. FIG. 9D is a line graph of an MTT assay of the human melanoma cell line 1205 Lu treated with the indicated concentrations of PET-16 (---) or PET-3C (-) for 72 h. The corresponding cell survival is normalized to the DMSO-treatment. Average and standard deviation (s.d.) from three independent experiments are shown. FIG. 9E is a line graph illustrating the growth of E. coli DH5α strain treated with different concentrations of PET-16 (black) or PET-3C (gray) for 6 h at 43° C. Error bars represent the s.d. of four independent experiments. FIG. 9F is a bar graph illustrating the growth of E. coli DH5α treated with DMSO, 30 μM PET-16, 30 μM PET-3C or 30 μM TPP for 6 h at 43° C. Error bars represent the s.d. of four independent experiments. […]

ADP-HSP70 (WT, aa 1-641) = biological target: T3, ADP-HSP70 (WT, aa 1-641) (Homo sapiens, UniProt P0DMV8, E110D); experiment: ITC binding to ADP-bound full-length HSP70; settings: ITC, wild-type full-length ADP-bound HSP70
T3 construct: Full-length recombinant proteins of HSP70 (aa 1-641) as well as DnaK (aa 1-638); His6 (N); made in house; host or cells: E. coli BL21 Star (DE3)
T3 sequence (P0DMV8 whole entry E110D, the tested form may be a part): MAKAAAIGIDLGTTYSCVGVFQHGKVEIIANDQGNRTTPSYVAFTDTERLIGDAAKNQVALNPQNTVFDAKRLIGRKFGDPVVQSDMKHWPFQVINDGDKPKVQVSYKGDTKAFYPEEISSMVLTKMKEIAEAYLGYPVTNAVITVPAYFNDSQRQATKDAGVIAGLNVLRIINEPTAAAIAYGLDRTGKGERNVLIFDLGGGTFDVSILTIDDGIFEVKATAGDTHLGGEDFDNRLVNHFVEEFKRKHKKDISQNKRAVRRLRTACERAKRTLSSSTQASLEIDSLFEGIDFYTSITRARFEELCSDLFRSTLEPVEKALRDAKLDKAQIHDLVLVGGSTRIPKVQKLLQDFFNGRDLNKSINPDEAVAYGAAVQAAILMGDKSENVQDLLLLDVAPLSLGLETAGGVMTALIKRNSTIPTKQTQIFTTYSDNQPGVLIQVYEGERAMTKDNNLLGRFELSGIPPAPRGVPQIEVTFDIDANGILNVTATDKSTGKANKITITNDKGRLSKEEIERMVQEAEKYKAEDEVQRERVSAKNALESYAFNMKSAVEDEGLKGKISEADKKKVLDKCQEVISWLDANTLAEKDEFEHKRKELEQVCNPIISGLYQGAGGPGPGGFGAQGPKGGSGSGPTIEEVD
Source text: The human stress-inducible HSP70 (residues 1-641 or 386-616 of SEQ ID NO: 2) and E. coli DnaK (residues 1-638, 389-607, or 393-507 of SEQ ID NO: 4) were cloned into the pET25 vector (EMD Millipore Chemicals, Inc., Billerica, Mass., USA) between the NdeI and XhoI restriction sites. The full-length HSP70 and DnaK mutants were constructed by PCR-based site-directed mutagenesis using the QuikChange™ Site-Directed Mutagenesis Kit (Agilent Technologies, Inc., Santa Clara, Calif., USA). All plasmid inserts were verified by DNA sequencing. All HSP70 and DnaK variants were produced with a N-terminal His6-tag in the E. coli BL21 Star (DE3) strain (Invitrogen catalog number C6010-03). The resulting strains were grown at 37° C. in LB medium containing 50 μg/mL of carbenicillin (Sigma-Aldrich Co., St. Louis, Mo., USA). At an OD600 about 0.3 to about 0.5, protein expression was induced with 0.5 mM isopropyl-β-D-thiogalactopyranoside (IPTG), and cells were subsequently grown at 25° C. for about 16 h. Cells were collected by centrifugation and resuspended in the Bugbuster® Master Mix (EMD Millipore Chemicals catalog number 71456-4), supplemented with protease inhibitors, 1 mM diethiothreitol (DTT) and 20 mM imidazole. The His6-tagged fusion proteins were isolated on Ni^2+-chelating resins (Ni-NTA Superflow, Qiagen catalog number 30410) by standard procedures. When necessary, size-exclusion chromatography on a Superdex® 200 or a Superose® 6 10/300 GL columns (GE Healthcare) analytical column pre-equilibrated with 1× Dulbecco's Phosphate Buffered Saline (DPBS—Invitrogen 14190-136), 1 mM Tris-HCl (pH 7.4) or 10 mM Tris-HCl (pH 7) was used as the final purification step. The purified DnaK proteins were dialyzed thoroughly against 1× DPBS with 5 mM DTT at 4° C., for crystallization trials involving the small molecule inhibitor PET-16. For isothermal titration calorimetry studies, all HSP70 and DnaK variants were dialyzed extensively against the buffers as noted below under the section entitled “Isothermal Titration calorimetry Studies”. The dialyzed proteins were subsequently microcentrifugated at 15,000×g for 5 min at 4° C. and aliquots of the soluble proteins were stored at −80° C.
as §1
as §2, with “reported. […]” for “reported.”

ATP-HSP70 (WT) = biological target: T4, ATP-HSP70 (WT) (Homo sapiens, UniProt P0DMV8, E110D); experiment: ITC binding to ATP-bound full-length HSP70; settings: wild-type full-length ATP-bound HSP70
T4 construct: Full-length recombinant proteins of HSP70 (aa 1-641) as well as DnaK (aa 1-638); His6 (N); made in house; host or cells: E. coli BL21 Star (DE3)
T4 sequence (P0DMV8 whole entry E110D, the tested form may be a part): as above
Source text: The human stress-inducible HSP70 (residues 1-641 or 386-616 of SEQ ID NO: 2) and E. coli DnaK (residues 1-638, 389-607, or 393-507 of SEQ ID NO: 4) were cloned into the pET25 vector (EMD Millipore Chemicals, Inc., Billerica, Mass., USA) between the NdeI and XhoI restriction sites. The full-length HSP70 and DnaK mutants were constructed by PCR-based site-directed mutagenesis using the QuikChange™ Site-Directed Mutagenesis Kit (Agilent Technologies, Inc., Santa Clara, Calif., USA). All plasmid inserts were verified by DNA sequencing. All HSP70 and DnaK variants were produced with a N-terminal His6-tag in the E. coli BL21 Star (DE3) strain (Invitrogen catalog number C6010-03). The resulting strains were grown at 37° C. in LB medium containing 50 μg/mL of carbenicillin (Sigma-Aldrich Co., St. Louis, Mo., USA). At an OD600 about 0.3 to about 0.5, protein expression was induced with 0.5 mM isopropyl-β-D-thiogalactopyranoside (IPTG), and cells were subsequently grown at 25° C. for about 16 h. Cells were collected by centrifugation and resuspended in the Bugbuster® Master Mix (EMD Millipore Chemicals catalog number 71456-4), supplemented with protease inhibitors, 1 mM diethiothreitol (DTT) and 20 mM imidazole. The His6-tagged fusion proteins were isolated on Ni^2+-chelating resins (Ni-NTA Superflow, Qiagen catalog number 30410) by standard procedures. When necessary, size-exclusion chromatography on a Superdex® 200 or a Superose® 6 10/300 GL columns (GE Healthcare) analytical column pre-equilibrated with 1× Dulbecco's Phosphate Buffered Saline (DPBS—Invitrogen 14190-136), 1 mM Tris-HCl (pH 7.4) or 10 mM Tris-HCl (pH 7) was used as the final purification step. The purified DnaK proteins were dialyzed thoroughly against 1× DPBS with 5 mM DTT at 4° C., for crystallization trials involving the small molecule inhibitor PET-16. For isothermal titration calorimetry studies, all HSP70 and DnaK variants were dialyzed extensively against the buffers as noted below under the section entitled “Isothermal Titration calorimetry Studies”. […]

[1] = tested on: melanoma tumor cell line WM989; experiment: Combination with BRAF inhibitor Vemurafenib, viability; type: cell-based, human
Source text: FIG. 6 is a line graph illustrating that PET-16 synergizes with the BRAF inhibitor Vemurafenib to reduce the viability of the melanoma tumor cell line WM989 (▪). WM989 cells treated singularly with Vemurafenib are depicted by (●). No synergy was detected between Vemurafenib and PES-Cl.

Compound: c1ccc(P(c2ccccc2)c2ccccc2)cc1 [TPP, triphenylphosphine]
binding to HSP70 SBD (HSP70 (aa 386-616)): does not bind
binding to DnaK SBD (DnaK SBD): does not bind
cytotoxicity for tumor cells (tumor cells): little discernible effect
effect on growth of E. coli (E. coli DH5α): no negative effect

Kd (ADP-HSP70 (WT, aa 1-641)): ~10 µM and 10 µM
Kd (ATP-HSP70 (WT)): 1250 ± 15 µM
Compound: CC(C)C[C@H](NC(=O)[C@H](CC(C)C)NC(=O)[C@H](CCCNC(=N)N)NC(=O)[C@@H](N)CC(N)=O)C(=O)N[C@@H](CC(C)C)C(=O)N[C@H](C(=O)NCC(=O)O)[C@@H](C)O [NRLLLTG, reference compound]

Compound: 2-(3-chlorophenyl) ethynesulfonamide [PES-Cl, reference compound]
synergy with PLX4032 (Vemurafenib) [1]: did not synergize
